The source made the active and inactive calls. The calls are words filed in the database; no cut-off is given here.
Assays:
Transthyretin [1] = molecular target: T1, Transthyretin (Homo sapiens, UniProt P02766, V50M); experiment: (§1) Inhibition of recombinant N-terminal hexa-histidine tagged TTR V30M mutant (unknown origin) expressed in Escherichia coli assessed as acid mediated amyloid-like fibril formation by measuring turbidity incubated for 1 week at 310K in presence of sodium acetate by absorbance based assay
[2] = test system: Transthyretin (Homo sapiens), P02766 [V50M]; experiment: as §1, with “fluorescence intensity at 1 uM” for “turbidity”, “4 days” for “1 week”, “thioflavin T” for “absorbance”, “fluorescence spectrophotometric analysis” for “assay”; conditions: time 4.0 day
Transthyretin [3] = molecular target: T1, Transthyretin; experiment: Binding affinity to recombinant N-terminal hexa-histidine tagged TTR V30M mutant (unknown origin) expressed in Escherichia coli assessed as quenching of intrinsic tryptophan fluorescence by measuring apparent dissociation constant incubated for 60 mins by fluorescence based analysis; conditions: read-out: Kd(app)
Transthyretin [4] = molecular target: T1, Transthyretin; experiment: Binding affinity to N-terminal hexa-histidine tagged TTR V30M mutant (unknown origin) expressed in Escherichia coli assessed as dissociation constant at 60 uM by ITC assay
[5] = test system: Transthyretin (Homo sapiens), P02766 [V50M]; experiment: Binding affinity to N-terminal hexa-histidine tagged TTR V30M mutant (unknown origin) expressed in Escherichia coli assessed as gibbs free energy change at 60 uM by ITC assay
[6] = test system: Transthyretin (Homo sapiens), P02766 [V50M]; experiment: Binding affinity to N-terminal hexa-histidine tagged TTR V30M mutant (unknown origin) expressed in Escherichia coli assessed as change in enthalpy at 60 uM by ITC assay
[7] = test system: Transthyretin (Homo sapiens), P02766 [V50M]; experiment: Binding affinity to N-terminal hexa-histidine tagged TTR V30M mutant (unknown origin) expressed in Escherichia coli assessed as change in entropy at 60 uM by ITC assay

Compound | Ki (Transthyretin [1]) [µM] | inhibition [2] | Kd (Transthyretin [3]) [µM] | Kd (Transthyretin [4]) [µM] | deltaG [5] [kcal/mol] | deltaH [6] [kcal/mol] | -TdeltaS [7] [kcal/mol]
CC(=O)Oc1ccc(/C=C/c2cc(OC(C)=O)cc(OC(C)=O)c2)cc1 [TRIACETYLRESVERATROL] | 2.2 | Active |  |  |  |  | 
COc1cc(/C=C/c2ccc(OC)c(OC)c2)cc(OC)c1 [(E)-3,4,3',5'-TETRAMETHOXYSTILBENE] | 49 | inactive | 6.9 |  |  |  | 
COc1ccc(/C=C/c2cc(OC)cc(OC)c2)cc1 [TRISMETHOXYRESVERATROL] |  | inactive | 4.1 |  |  |  | 
Oc1cc(O)cc(/C=C/c2ccc(O)cc2O)c1 [OXYRESVERATROL] | 4.5 | Active | 2.4 | 1.4 | -8.1 | -16 | 7.5
O=C(O)c1ccc2nc(-c3cc(Cl)cc(Cl)c3)oc2c1 |  | Active |  |  |  | -5 | -4
COc1cc(O)cc(/C=C/c2ccc(O)cc2)c1 | 3.4 | Active | 1.2 | 2.4 | -7.7 | -14 | 6.2
COc1cc(/C=C/c2cc(O)cc(O)c2)ccc1O | 3.2 | Active | 0.73 | 1.2 | -8.1 | -13 | 4.7
Oc1ccc(/C=C/c2cc(O)cc(O)c2)cc1 [RESVERATROL] | 2.7 | Active | 1.4 | 1.5 | -8 | -15 | 6.6
Oc1cc(O)cc(/C=C/c2ccc(O)c(O)c2)c1 [PICEATANNOL] | 5.4 | Active | 2.1 | 1.5 | -8 | -14 | 6.4
Oc1cc(O)cc(/C=C/c2c(O)cccc2O)c1 | 54 | inactive | 14 | 11 | -6.8 | -8.5 | 1.7
COc1cc(/C=C/c2ccc(O)cc2)cc(OC)c1 [PTEROSTILBENE] | 3.5 | Active | 1.9 | 4.6 | -7.3 | -14 | 6.8
O=C(O)c1cc(-c2ccc(F)cc2F)ccc1O |  | Active |  |  |  | -13 | 5.2
